Structures can show the parent of a compound that is named as a salt.
Tested on: HepaRG
Test: LDH release cytotoxicity, % of total lysis control; higher = more cytotoxic
Settings: 48 h
Method in brief: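 Single-lot HepaRG cells on collagen I-coated 96-well plates were exposed for 48 h in duplicate, in serum-free induction medium with 0.5% DMSO, to eight-point half-log series (test chemicals top 100 µM). Total lysis wells received 0.1% Triton X, and LDH leakage into 50 µL spent medium was read as resorufin fluorescence (CytoTox-ONE, Tecan Safire). Percent cytotoxicity was normalized to on-plate vehicle and total lysis controls and averaged over the duplicates.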

O=P(O)(O)CCCl [Ethephon]
Settings	LDH release cytotoxicity [%]
0.03162 µM	-2.07
0.1 µM	-1.57
0.3162278 µM	-2.29
1 µM	-1.94
3.16228 µM	-2.12
10 µM	-1.39
31.6228 µM	-0.276
100 µM	0.34

CCOP(=S)(OCC)SCSP(=S)(OCC)OCC [Ethion]
Settings	LDH release cytotoxicity [%]
0.03162 µM	-0.671
0.1 µM	-1.31
0.3162278 µM	-1.54
1 µM	-1.6
3.16228 µM	-1.07
10 µM	-1.06
31.6228 µM	-2.53
100 µM	-0.532

CCOC1Oc2ccc(OS(C)(=O)=O)cc2C1(C)C (stereo unspecified) [Ethofumesate]
Settings	LDH release cytotoxicity [%]
0.031623 µM	-1.31
0.1 µM	-1.58
0.316228 µM	-1.7
1 µM	-3.38
3.16228 µM	-2.65
10 µM	-3.76
31.6228 µM	-3.45
100 µM	12.4

CCCSP(=O)(OCC)SCCC [Ethoprop]
Settings	LDH release cytotoxicity [%]
0.0325715 µM	-0.633
0.103 µM	-0.669
0.325715 µM	-0.697
1.03 µM	-0.356
3.25715 µM	-0.537
10.3 µM	-0.345
32.5715 µM	0.55
103 µM	2.97

CCOc1ccc2c(c1)C(C)=CC(C)(C)N2 [Ethoxyquin]
Settings	LDH release cytotoxicity [%]
0.03162 µM	-1.26
0.1 µM	-0.577
0.3162278 µM	-1.06
1 µM	-1.45
3.16228 µM	-1.65
10 µM	-1.77
31.6228 µM	-1.67
100 µM	-0.112

CCCC(=O)OCC [Ethyl butyrate]
Settings	LDH release cytotoxicity [%]
0.03162 µM	-2.73
0.1 µM	-1.76
0.3162278 µM	-1.67
1 µM	-2.36
3.16228 µM	-1.92
10 µM	-0.558
31.6228 µM	0.726
100 µM	0.69

CCCCCCC(=O)OCC [Ethyl heptanoate]
Settings	LDH release cytotoxicity [%]
0.03162 µM	-1.33
0.1 µM	-1.43
0.3162278 µM	-1.58
1 µM	-1.97
3.16228 µM	-1.57
10 µM	-1.28
31.6228 µM	0.37
100 µM	3.07

CCOCCOC(C)=O [Ethylene glycol monoethyl ether acetate]
Settings	LDH release cytotoxicity [%]
0.03162 µM	-1.19
0.1 µM	-0.486
0.3162278 µM	0.156
1 µM	0.488
3.16228 µM	0.0494
10 µM	0.917
31.6228 µM	0.221
100 µM	1.51

OCCO [Ethylene glycol]
Settings	LDH release cytotoxicity [%]
0.0317809 µM	-0.738
0.1005 µM	-1.93
0.317809 µM	-2.04
1.005 µM	-2.45
3.17809 µM	-1.91
10.05 µM	-1.42
31.7809 µM	-1.26
100.5 µM	0.328

S=C1NCCN1 [Ethylene thiourea]
Settings	LDH release cytotoxicity [%]
0.03162 µM	-0.742
0.1 µM	-0.402
0.3162278 µM	-0.462
1 µM	-0.602
3.16228 µM	-0.544
10 µM	0.0401
31.6228 µM	0.537
100 µM	0.155

CCOC(=O)c1ccc(O)cc1 [Ethylparaben]
Settings	LDH release cytotoxicity [%]
0.03162 µM	-0.474
0.1 µM	-1.24
0.3162278 µM	-1.05
1 µM	-1.23
3.16228 µM	-0.851
10 µM	-1.05
31.6228 µM	-0.271
100 µM	0.163

CCOc1ccc(C(C)(C)COCc2cccc(Oc3ccccc3)c2)cc1 [Etofenprox]
Settings	LDH release cytotoxicity [%]
0.03162 µM	-2.22
0.1 µM	-3.48
0.3162278 µM	-2.37
1 µM	-2.59
3.16228 µM	-2.77
10 µM	-2.63
31.6228 µM	-2.47
100 µM	-1.82

CCOc1cc(C(C)(C)C)ccc1C1COC(c2c(F)cccc2F)=N1 (stereo unspecified) [Etoxazole]
Settings	LDH release cytotoxicity [%]
0.020871 µM	-3.18
0.066 µM	-1.79
0.20871 µM	-2.56
0.66 µM	-3.05
2.0871 µM	-2.64
6.6 µM	-2.88
20.871 µM	-2.37
66 µM	5.91

C=CCc1ccc(O)c(OC)c1 [Eugenol]
Settings	LDH release cytotoxicity [%]
0.03162 µM	-2.2
0.1 µM	-1.91
0.3162278 µM	-1.79
1 µM	-2.07
3.16228 µM	-2.07
10 µM	-1.74
31.6228 µM	-0.896
100 µM	-0.336

CCN(Cc1cccc(S(=O)(=O)O)c1)c1ccc(C(=C2C=CC(=[N+](CC)Cc3cccc(S(=O)(=O)O)c3)C=C2)c2ccccc2S(=O)(=O)O)cc1 [FD&C Blue No. 1]
Settings	LDH release cytotoxicity [%]
0.0204 µM	-1.63
0.0645 µM	-0.475
0.203967 µM	-1.54
0.645 µM	-1.35
2.03967 µM	-1.04
6.45 µM	-0.732
20.3967 µM	-1.07
64.5 µM	-1.76

O=S(=O)(O)c1ccc(N=Nc2c(O)ccc3cc(S(=O)(=O)O)ccc23)cc1 [FD&C Yellow 6]
Settings	LDH release cytotoxicity [%]
0.03162 µM	-2.21
0.1 µM	-2.28
0.3162278 µM	-3.01
1 µM	-3.07
3.16228 µM	-4.37
10 µM	-4.81
31.6228 µM	-4.8
100 µM	-4.65

Cc1nc[nH]c1CC1CCc2c(C)c3ccccc3n2C1=O (stereo unspecified) [Fabesetron hydrochloride]
Settings	LDH release cytotoxicity [%]
0.0281443 µM	-1.11
0.089 µM	-1.43
0.281443 µM	-1.19
0.89 µM	-1.4
2.81443 µM	-1.38
8.9 µM	-0.0311
28.144271 µM	43.7
89 µM	76.2

CC1(c2ccc(Oc3ccccc3)cc2)OC(=O)N(Nc2ccccc2)C1=O (stereo unspecified) [Famoxadone]
Settings	LDH release cytotoxicity [%]
0.0317809 µM	-0.255
0.1005 µM	-1.03
0.317809 µM	-0.879
1.005 µM	-1.52
3.17809 µM	-2.56
10.05 µM	10.7
31.7809 µM	18.1
100.5 µM	64.5

CCc1cc(C2=C(C(=O)O)N(c3ccccc3C(F)(F)F)S(=O)(=O)c3ccccc32)cc2c1OCO2 [Fandosentan potassium salt]
Settings	LDH release cytotoxicity [%]
0.03162 µM	-0.538
0.1 µM	-0.00891
0.3162278 µM	-0.491
1 µM	-0.769
3.16228 µM	-0.525
10 µM	-0.587
31.6228 µM	2.28
100 µM	48.4

Cc1oc(-c2ccccc2)nc1CCOc1ccc(CC(Nc2ccccc2C(=O)c2ccccc2)C(=O)O)cc1 (stereo unspecified) [Farglitazar]
Settings	LDH release cytotoxicity [%]
0.03162 µM	-1.27
0.1 µM	-1.73
0.3162278 µM	-0.126
1 µM	-1.05
3.16228 µM	-2.03
10 µM	-1.81
31.6228 µM	67.1
100 µM	78.6

CSC1=NC(C)(c2ccccc2)C(=O)N1Nc1ccccc1 (stereo unspecified) [Fenamidone]
Settings	LDH release cytotoxicity [%]
0.03162 µM	-1.05
0.1 µM	-1.31
0.3162278 µM	-1.11
1 µM	-1.54
3.16228 µM	-1.63
10 µM	-2.26
31.6228 µM	6.59
100 µM	15.2

CN(C)c1ccc(N=NS(=O)(=O)O)cc1 [Fenaminosulf]
Settings	LDH release cytotoxicity [%]
0.03162 µM	-1.38
0.1 µM	-1.18
0.3162278 µM	-1.97
1 µM	-2.42
3.16228 µM	-2.64
10 µM	-3.4
31.6228 µM	-3.39
100 µM	-3.64

CCOP(=O)(NC(C)C)Oc1ccc(SC)c(C)c1 (stereo unspecified) [Fenamiphos]
Settings	LDH release cytotoxicity [%]
0.03162 µM	-1.16
0.1 µM	-1.81
0.3162278 µM	-1.38
1 µM	-1.28
3.16228 µM	-1.13
10 µM	-1.56
31.6228 µM	-1.03
100 µM	0.0773

OC(c1ccc(Cl)cc1)(c1cncnc1)c1ccccc1Cl (stereo unspecified) [Fenarimol]
Settings	LDH release cytotoxicity [%]
0.031623 µM	-1.68
0.1 µM	-0.827
0.316228 µM	-0.805
1 µM	-2.32
3.16228 µM	-0.581
10 µM	0.969
31.6228 µM	2.21
100 µM	15.4

N#CC(CCc1ccc(Cl)cc1)(Cn1cncn1)c1ccccc1 (stereo unspecified) [Fenbuconazole]
Settings	LDH release cytotoxicity [%]
0.03162 µM	-0.994
0.1 µM	-0.764
0.3162278 µM	-0.539
1 µM	-0.261
3.16228 µM	-0.9
10 µM	-0.281
31.6228 µM	5.08
100 µM	31.3

CC1(C(=O)Nc2ccc(O)c(Cl)c2Cl)CCCCC1 [Fenhexamid]
Settings	LDH release cytotoxicity [%]
0.031623 µM	-0.566
0.1 µM	-4.08
0.316228 µM	-4.43
1 µM	-3.83
3.16228 µM	-3.52
10 µM	-3.56
31.6228 µM	-3.14
100 µM	-0.0455

COP(=S)(OC)Oc1ccc([N+](=O)[O-])c(C)c1 [Fenitrothion]
Settings	LDH release cytotoxicity [%]
0.03162 µM	-1.98
0.1 µM	-2.13
0.3162278 µM	-0.603
1 µM	-1.11
3.16228 µM	-0.939
10 µM	-0.576
31.6228 µM	-0.104
100 µM	0.45

— the supplement of paper PMC7840683
